Read-outs that look alike come from different tables or passages of the source. Bounds are passed on as bounds.

As usually defined, the melting point is the temperature, or range, at which the solid turns liquid.

One data set deals with Pythium ultimum. The data set is described as follows: Pythium ultimum / liquid culture (seedling damping off). Conditions: Globisporangium ultimum, liquid culture in PDB, 24° C., 2-3 days after application, read-out: inhibit fungal infestation (inhibition of growth determined photometrically). It counts as cell-based. As for the experimental part: Mycelia fragments or conidia suspensions of a fungus, prepared either freshly from liquid cultures of the fungus or from cryogenic storage, are directly mixed into nutrient broth. DMSO solutions of the test compound (max. 10 mg/ml) is diluted with 0.025% Tween20 by factor 50 and 10 μl of this solution is pipetted into a microtiter plate (96-well format) and the nutrient broth containing the fungal spores/mycelia fragments is then added to give an end concentration of the tested compound. The test plates are incubated at 24° C. and 96% rH in the dark. The inhibition of fungal growth is determined photometrically after 2-6 days and antifungal activity is calculated.
Mycelia fragments and oospores of a newly grown liquid culture of the fungus are directly mixed into nutrient broth (PDB potato dextrose broth). After placing a (DMSO) solution of test compound into a microtiter plate (96-well format), the nutrient broth containing the fungal mycelia/spore mixture is added. The test plates are incubated at 24° C. and the inhibition of growth is determined photometrically 2-3 days after application.

The next data set concerns Phytophthora infestans. Nature of the data set: whole plant or invertebrate. Type of data set: in vivo. As to conditions: in Solanum lycopersicum, foliar, read-out: inhibit fungal infestation (percent disease control compared to untreated).
The subject of data set [1] is Blumeria graminis f. sp. tritici (Erysiphe graminis f. sp. tritici). Nature of the data set: Blumeria graminis f. sp. tritici / wheat / leaf disc preventative (powdery mildew on wheat). Type of data set: in vivo. As to conditions: foliar, wheat leaf segments cv. Kanzler, inoculated 1 day after application, assessed 6-8 days after application, read-out: inhibit fungal infestation (percent disease control compared to untreated). The method, then: (§1) Leaf disks of various plant species (diameter 14 mm) are cut from plants grown in the greenhouse. The cut leaf disks are placed in multiwell plates (24-well format) onto water agar. Immediately after cutting the leaf disks are sprayed with a test solution.
(§2) Compounds to be tested are prepared as DMSO solutions (max. 10 mg/ml). Just before spraying the solutions are diluted to the appropriate concentrations with 0.025% Tween20. After drying, the leaf disks are inoculated with a spore suspension of the appropriate pathogenic fungus.
(§3) After an incubation time of 3-7 days after inoculation at defined conditions (temp, rH, light, etc.) according to the respective test system, the activity of the test compound is assessed as antifungal activity.
Wheat leaf segments cv. Kanzler are placed on agar in a multiwell plate (24-well format) and sprayed with the formulated test compound diluted in water. The leaf disks are inoculated by shaking powdery mildew infected plants above the test plates 1 day after application. The inoculated leaf disks are incubated at 20° C. and 60% rh under a light regime of 24 h darkness followed by 12 h light/12 h darkness in a climate chamber and the activity of a compound is assessed as percent disease control compared to untreated when an appropriate level of disease damage appears on untreated check leaf segments (6-8 days after application).

In a further data set the test system is Plasmopara viticola. The data set is described as follows: Plasmopara viticola / grape / leaf disc preventative. Type of data set: in vivo. Conditions: foliar, grape vine leaf disks, inoculated 1 day after application, assessed 6-8 days after application, read-out: inhibit fungal infestation (percent disease control compared to untreated). As for the experimental part: as §1, §2, §3
Grape vine leaf disks are placed on water agar in multiwell plates (24-well format) and sprayed with the formulated test compound diluted in water. The leaf disks are inoculated with a spore suspension of the fungus 1 day after application. The inoculated leaf disks are incubated at 19° C. and 80% rh under a light regime of 12 h light/12 h darkness in a climate cabinet and the activity of a compound is assessed as percent disease control compared to untreated when an appropriate level of disease damage appears in untreated check leaf disks (6-8 days after application).

In turn, `CCc1cnc2c(Cl)cc(OC(SC)C(=O)NC3CCC3)cc2c1` (centres unmarked) returned a melting point of 154 to 156 °C.

On to `C=Cc1cnc2c(Cl)cc(OC(SC)C(=O)NC(C)(C)C#N)cc2c1` (centres unmarked), for which the melting point lay within 138 to 141 °C.

Regarding `CCC(C)(C)NC(=O)C(Oc1ccc2ncc(C)cc2c1)SC` (centres unmarked) [Compound 5, N-(1,1-Dimethyl-propyl)-2-(3-methyl-quinolin-6-yloxy)-2-methylsulfanyl-acetamide], the melting point was in the range of 103 to 104 °C. Moreover, in the data set on Pythium ultimum, the inhibition at 200 ppm was not below 80%. For the same compound, the inhibition at 200 ppm in the data set with Phytophthora infestans is not below 80%.

As for `COCC(C)(C#N)NC(=O)C(Oc1cc(C)c2ncc(C)cc2c1)SC` (centres unmarked) [Compound 11, N-(1-Cyano-2-methoxy-1-methyl-ethyl)-2-(3,8-dimethyl-quinolin-6-yloxy)-2-methylsulfanyl-acetamide], the melting point lay within 115 to 117 °C. In addition, the inhibition at 200 ppm with Pythium ultimum is not below 80%. Further, in data set [1], the inhibition at 200 ppm is not below 80%.

For the compound `C=Cc1cnc2ccc(OC(CC)C(=O)NC(C)(C#N)COC)cc2c1` (centres unmarked) [Compound 39, N-(1-Cyano-2-methoxy-1-methyl-ethyl)-2-(3-vinyl-quinolin-6-yloxy)-butyramide], the melting point fell in the range of 120 to 125 °C. Moreover, the inhibition at 200 ppm in the data set on Pythium ultimum was not below 80%. The inhibition at 200 ppm in data set [1] was not below 80%.

Compound `CC#CC(C)(C)NC(=O)C(Oc1cc(C)c2ncc(CC)cc2c1)SC` (centres unmarked) [Compound 19, N-(1,1-Dimethyl-but-2-ynyl)-2-(3-ethyl-8-methyl-quinolin-6-yloxy)-2-methylsulfanyl-acetamide] gave a melting point of 166 to 167 °C. The inhibition at 200 ppm with Plasmopara viticola was not below 80%. For the same compound, the inhibition at 200 ppm with Pythium ultimum was not below 80%. In addition, in the data set on Phytophthora infestans, the inhibition at 200 ppm is not below 80%.

Consider `CSC(Oc1ccc2ncc(C)cc2c1)C(=O)NC(C)(C)C` (centres unmarked) [Compound 1, N-tert-Butyl-2-(3-methyl-quinolin-6-yloxy)-2-methylsulfanyl-acetamide], for which the melting point fell in the range of 126 to 127 °C. The inhibition at 200 ppm with Pythium ultimum was not below 80%. Moreover, the inhibition at 200 ppm in data set [1] is not below 80%. The inhibition at 200 ppm in the data set with Phytophthora infestans was not below 80%.

For `CCc1cnc2ccc(OC(CC)C(=O)NC(C)(C)C#CCOC)cc2c1` (centres unmarked) [Compound 29, 2-(3-Ethyl-quinolin-6-yloxy)-N-(4-methoxy-1,1-dimethyl-but-2-ynyl)-butyramide], the melting point lay in the range of 99 to 101 °C. Besides, the inhibition at 200 ppm with Pythium ultimum was not below 80%. Further, the inhibition at 200 ppm in data set [1] was not below 80%. The inhibition at 200 ppm in the data set with Phytophthora infestans is not below 80%.

As to `CCc1cnc2c(Cl)cc(OC(SC)C(=O)NC(C)(C)C#CCOC)cc2c1` (centres unmarked) [Compound 27, 2-(8-Chloro-3-ethyl-quinolin-6-yloxy)-N-(4-methoxy-1,1-dimethyl-but-2-ynyl)-2-methylsulfanyl-acetamide], the melting point was 139 to 142 °C. Moreover, the inhibition at 200 ppm in the data set on Plasmopara viticola was not below 80%. Moreover, in data set [1], the inhibition at 200 ppm is not below 80%. Further, the inhibition at 200 ppm in the data set on Phytophthora infestans was not below 80%.

In the case of `C=Cc1cnc2c(Cl)cc(OC(CC)C(=O)NC(C)(C)C)cc2c1` (centres unmarked), the melting point was in the range of 100 to 102 °C.

The compound `CCc1cnc2c(C)cc(OC(SC)C(=O)NC3CCC3)cc2c1` (centres unmarked) [Compound 21, N-Cyclobutyl-2-(3-ethyl-8-methyl-quinolin-6-yloxy)-2-methylsulfanyl-acetamide] came in with a melting point of 157 to 158 °C. Also, the inhibition at 200 ppm in the data set with Plasmopara viticola is not below 80%. Further, the inhibition at 200 ppm in the data set on Pythium ultimum is not below 80%. Also, in the data set with Phytophthora infestans, the inhibition at 200 ppm was not below 80%.

On to `CCc1cnc2c(C)cc(OC(SC)C(=O)NC(C)(C)C#CCOC)cc2c1` (centres unmarked) [Compound 20, 2-(3-Ethyl-8-methyl-quinolin-6-yloxy)-N-(4-methoxy-1,1-dimethyl-but-2-ynyl)-2-methylsulfanyl-acetamide], for which the melting point is 137 to 138 °C. Also, the inhibition at 200 ppm in the data set with Plasmopara viticola is not below 80%. In the data set on Pythium ultimum, the inhibition at 200 ppm is not below 80%. The inhibition at 200 ppm in the data set on Phytophthora infestans was not below 80%.

The compound `CCc1cnc2ccc(OC(CC)C(=O)NC(C)(C)/C=N/OC)cc2c1` (centres unmarked) [Compound 31] came in with a melting point of 125 to 127 °C. The inhibition at 200 ppm with Pythium ultimum is not below 80%. For the same compound, the inhibition at 200 ppm in data set [1] (in Triticum aestivum) is not below 80%. In the data set on Phytophthora infestans, the inhibition at 200 ppm was not below 80%.

Consider `CC#CC(C)(C)NC(=O)C(Oc1cc(Cl)c2ncc(CC)cc2c1)SC` (centres unmarked), for which the melting point lay within 186 to 188 °C.

`CCc1cnc2c(C)cc(OC(SC)C(=O)NC3(C)CCC3)cc2c1` (centres unmarked) [Compound 22, 2-(3-Ethyl-8-methyl-quinolin-6-yloxy)-N-(1-methyl-cyclobutyl)-2-methylsulfanyl-acetamide] had a melting point of 150 to 151 °C. Besides, the inhibition at 200 ppm with Plasmopara viticola is not below 80%. In addition, in the data set with Pythium ultimum, the inhibition at 200 ppm is not below 80%. In addition, the inhibition at 200 ppm with Phytophthora infestans is not below 80%.

For `CCc1cnc2ccc(OC(CC)C(=O)NC3(C)CCC3)cc2c1` (centres unmarked) [Compound 30, 2-(3-Ethyl-quinolin-6-yloxy)-N-(1-methyl-cyclobutyl)-butyramide], the melting point fell in the range of 110 to 112 °C. Further, in the data set on Pythium ultimum, the inhibition at 200 ppm is not below 80%. In addition, the inhibition at 200 ppm in data set [1] is not below 80%. Also, the inhibition at 200 ppm in the data set on Phytophthora infestans is not below 80%.

Compound `CCc1cnc2c(C)cc(OC(SC)C(=O)NC(C)(C)C)cc2c1` (centres unmarked) [Compound 17, N-tert-Butyl-2-(3-ethyl-8-methyl-quinolin-6-yloxy)-2-methylsulfanyl-acetamide] yielded a melting point of 153 to 154 °C. Also, the inhibition at 200 ppm in the data set on Plasmopara viticola was not below 80%. In addition, the inhibition at 200 ppm with Pythium ultimum was not below 80%. Also, the inhibition at 200 ppm in the data set on Phytophthora infestans is not below 80%.

As for `COCC#CC(C)(C)NC(=O)C(Oc1ccc2ncc(C)cc2c1)SC` (centres unmarked) [Compound 4, N-(4-Methoxy-1,1-dimethyl-but-2-ynyl)-2-(3-methyl-quinolin-6-yloxy)-2-methylsulfanyl-acetamide], the melting point fell in the range of 100 to 102 °C. Also, the inhibition at 200 ppm in the data set on Pythium ultimum was not below 80%. The inhibition at 200 ppm in data set [1] was not below 80%. For the same compound, the inhibition at 200 ppm in the data set with Phytophthora infestans is not below 80%.

Regarding `CCc1cnc2c(Cl)cc(OC(SC)C(=O)NC3(C)CCC3)cc2c1` (centres unmarked) [Compound 28, 2-(8-Chloro-3-ethyl-quinolin-6-yloxy)-N-(1-methyl-cyclobutyl)-2-methylsulfanyl-acetamide], the melting point was in the range of 148 to 150 °C. For the same compound, in the data set with Plasmopara viticola, the inhibition at 200 ppm was not below 80%. For the same compound, the inhibition at 200 ppm in the data set on Pythium ultimum was not below 80%. Further, the inhibition at 200 ppm in data set [1] was not below 80%.

As to `C=Cc1cnc2c(Cl)cc(OC(OC)C(=O)NC(C)C)cc2c1` (centres unmarked) [Compound 40, 2-(8-Chloro-3-vinyl-quinolin-6-yloxy)-N-iso-propyl-2-methoxy-acetamide], the melting point was in the range of 108 to 112 °C. In data set [1], the inhibition at 200 ppm was not below 80%.

`CCc1cnc2ccc(OC(CC)C(=O)NC(C)(C#N)COC)cc2c1` (centres unmarked) [Compound 32, N-(1-Cyano-2-methoxy-1-methyl-ethyl)-2-(3-ethyl-quinolin-6-yloxy)-butyramide] gave a melting point of 114 to 117 °C. Further, the inhibition at 200 ppm in data set [1] was not below 80%.

Compound `C=Cc1cnc2c(F)cc(OC(SC)C(=O)NC(C)CC)cc2c1` (centres unmarked) [Compound 38, N-sec-Butyl-2-(8-fluoro-3-vinyl-quinolin-6-yloxy)-2-methylsulfanyl-acetamide] returned a melting point of 110 to 112 °C. Besides, in the data set with Pythium ultimum, the inhibition at 200 ppm was not below 80%. In data set [1], the inhibition at 200 ppm is not below 80%.
